Source: US9150592B2, “Heterocyclic nuclear hormone receptor modulators” (AbbVie Inc., priority 2012, dated 2015)

How the values were obtained:
[1] = target: T1, Glucocorticoid Receptor (GR) (Homo sapiens, UniProt P04150); test: GR Fluorescence Polarization Assay (PolarScreen Glucocorticoid Receptor Competitor Assay, Red); details: IC50 class ranges, read-out: GR binding
T1 construct: purchased Invitrogen P2893
T1 sequence (P04150 1-777): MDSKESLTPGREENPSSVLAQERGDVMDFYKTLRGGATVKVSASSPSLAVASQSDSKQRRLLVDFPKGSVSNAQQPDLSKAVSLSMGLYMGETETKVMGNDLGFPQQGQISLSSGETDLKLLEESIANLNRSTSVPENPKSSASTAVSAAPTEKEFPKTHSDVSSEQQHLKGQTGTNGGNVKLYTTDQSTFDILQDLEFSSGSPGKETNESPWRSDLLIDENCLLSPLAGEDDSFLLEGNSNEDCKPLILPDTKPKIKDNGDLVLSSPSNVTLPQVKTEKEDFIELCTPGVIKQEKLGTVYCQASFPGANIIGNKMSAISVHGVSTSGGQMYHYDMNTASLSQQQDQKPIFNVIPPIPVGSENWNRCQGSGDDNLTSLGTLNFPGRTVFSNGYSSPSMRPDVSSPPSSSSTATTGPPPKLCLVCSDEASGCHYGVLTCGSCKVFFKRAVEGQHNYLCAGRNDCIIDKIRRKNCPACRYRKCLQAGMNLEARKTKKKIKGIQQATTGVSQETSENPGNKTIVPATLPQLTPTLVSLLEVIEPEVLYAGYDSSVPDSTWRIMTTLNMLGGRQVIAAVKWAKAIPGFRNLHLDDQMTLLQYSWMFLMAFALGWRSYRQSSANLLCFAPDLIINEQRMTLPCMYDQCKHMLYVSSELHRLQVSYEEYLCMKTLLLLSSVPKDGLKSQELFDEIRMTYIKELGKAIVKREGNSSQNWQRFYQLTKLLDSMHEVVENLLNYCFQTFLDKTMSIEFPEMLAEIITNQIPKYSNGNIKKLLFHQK
Procedure, shortened: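 Competitive fluorescence-polarization assay using a red fluorescent glucocorticoid tracer with human GR in kit buffer. Compounds serially diluted 1:4 in DMSO, incubated with tracer and GR overnight at 4° C, then polarization read.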

[2] = test system: IL-6 in A549 cells stimulated with IL-1β; test: A549 Cell Assay to Measure Inflammation Markers (inhibition of IL-1β-induced IL-6); format: cell-based; details: Homo sapiens, intrinsic activity, Emax class ranges
Procedure, shortened: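 Compound pre-incubated with A549 cells 1 h at 37 °C, then stimulated with IL-1β (1 ng/mL final, 0.1% DMSO). Supernatant IL-6 quantified by MSD immunoassay after a further incubation. IC50 and Emax derived.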

[3] = A549, A549 Cell Assay to Measure Inflammation Markers

Row | Structure (SMILES) | IC50 [1] [nM] | Emax [2, 3] [%] | Emax ([2]; A549 Cell Assay to Measure Inflammation Markers) [%]
1 | CCn1nc(-c2ccccn2)c2c1N[C@@H](C)CS[C@H]2c1ccc(CCCO)cc1C (single isomer, unassigned) [M.36, 3-(4-(1-ethyl-7-methyl-3-(pyridin-2-yl)-4,6,7,8-tetrahydro-1H-pyrazolo[3,4-e][1,4]thiazepin-4-yl)-3-methylphenyl)propan-1-ol] | < 100 | > 60 | 
2 | CCn1nc(-c2ccccn2)c2c1N[C@@H](C)CS[C@H]2c1ccc(CCC(C)(C)O)cc1C (single isomer, unassigned) [M.39, 4-(4-(1-ethyl-7-methyl-3-(pyridin-2-yl)-4,6,7,8-tetrahydro-1H-pyrazolo[3,4-e][1,4]thiazepin-4-yl)-3-methylphenyl)-2-methylbutan-2-ol] | < 100 | > 70 | 
3 | CCn1nc(-c2ccccn2)c2c1N[C@H](C)CS[C@H]2c1ccc(CCC(C)(C)O)cc1C (single isomer, unassigned) [M.40, 4-(4-(1-ethyl-7-methyl-3-(pyridin-2-yl)-4,6,7,8-tetrahydro-1H-pyrazolo[3,4-e][1,4]thiazepin-4-yl)-3-methylphenyl)-2-methylbutan-2-ol] | < 100 | > 70 | 
4 | Cc1cc(CCC(C)(C)O)ccc1[C@@H]1SC[C@H](C)Nc2c1c(-c1ccccn1)nn2C (single isomer, unassigned) [M.42, 4-(4-(1,7-dimethyl-3-(pyridin-2-yl)-4,6,7,8-tetrahydro-1H-pyrazolo[3,4-e][1,4]thiazepin-4-yl)-3-methylphenyl)-2-methylbutan-2-ol] | < 100 | > 60 | 
5 | Cc1cc(CCC(C)(C)O)ccc1[C@@H]1SC[C@@H](C)Nc2c1c(-c1ccccn1)nn2C (single isomer, unassigned) [M.44, 4-(4-(1,7-dimethyl-3-(pyridin-2-yl)-4,6,7,8-tetrahydro-1H-pyrazolo[3,4-e][1,4]thiazepin-4-yl)-3-methylphenyl)-2-methylbutan-2-ol] | < 100 | > 60 | 
6 | CCn1nc(-c2ccccn2)c2c1N[C@H](C)CS[C@H]2c1ccc(C(N)=O)cc1C (single isomer, unassigned) [M.46, 4-(1-ethyl-7-methyl-3-(pyridin-2-yl)-4,6,7,8-tetrahydro-1H-pyrazolo[3,4-e][1,4]thiazepin-4-yl)-3-methylbenzamide] | < 100 | > 50 | 
7 | CCn1nc(-c2ccccn2)c2c1N[C@@H](C)CS[C@H]2c1ccc(C(N)=O)cc1C (single isomer, unassigned) [M.48, 4-(1-ethyl-7-methyl-3-(pyridin-2-yl)-4,6,7,8-tetrahydro-1H-pyrazolo[3,4-e][1,4]thiazepin-4-yl)-3-methylbenzamide] | < 100 | > 50 | 
8 | Cc1cc(CCCO)ccc1[C@@H]1SC[C@@H](C)Nc2c1c(-c1ccccn1)nn2C (single isomer, unassigned) [M.51, 3-(4-(1,7-dimethyl-3-(pyridin-2-yl)-4,6,7,8-tetrahydro-1H-pyrazolo[3,4-e][1,4]thiazepin-4-yl)-3-methylphenyl)propan-1-ol] | < 100 | < 50 | 
9 | Cc1cc(CCCO)ccc1[C@@H]1SC[C@H](C)Nc2c1c(-c1ccccn1)nn2C (single isomer, unassigned) [M.52, 3-(4-(1,7-dimethyl-3-(pyridin-2-yl)-4,6,7,8-tetrahydro-1H-pyrazolo[3,4-e][1,4]thiazepin-4-yl)-3-methylphenyl)propan-1-ol] | < 100 | < 50 | 
10 | Cc1cc(C#CCCO)ccc1[C@@H]1SC[C@H](C)Nc2c1c(-c1ccccn1)nn2C (single isomer, unassigned) [M.54, 4-(4-(1,7-dimethyl-3-(pyridin-2-yl)-4,6,7,8-tetrahydro-1H-pyrazolo[3,4-e][1,4]thiazepin-4-yl)-3-methylphenyl)but-3-yn-1-ol] | < 100 | < 50 | 
11 | Cc1cc(C#CCCO)ccc1[C@@H]1SC[C@@H](C)Nc2c1c(-c1ccccn1)nn2C (single isomer, unassigned) [M.55, 4-(4-(1,7-dimethyl-3-(pyridin-2-yl)-4,6,7,8-tetrahydro-1H-pyrazolo[3,4-e][1,4]thiazepin-4-yl)-3-methylphenyl)but-3-yn-1-ol] | < 100 | < 50 | 
12 | Cc1cc(C(=O)Nc2cccnc2C)ccc1[C@@H]1SC[C@@H](C)Nc2c1c(-c1ccncn1)nn2C (single isomer, unassigned) [M.57, 4-(1,7-dimethyl-3-(pyrimidin-4-yl)-4,6,7,8-tetrahydro-1H-pyrazolo[3,4-e][1,4]thiazepin-4-yl)-3-methyl-N-(2-methylpyridin-3-yl)benzamide] | < 100 | > 70 | 
13 | Cc1cc(C(=O)Nc2cccnc2C)ccc1[C@@H]1SC[C@H](C)Nc2c1c(-c1ccncn1)nn2C (single isomer, unassigned) [M.58, 4-(1,7-dimethyl-3-(pyrimidin-4-yl)-4,6,7,8-tetrahydro-1H-pyrazolo[3,4-e][1,4]thiazepin-4-yl)-3-methyl-N-(2-methylpyridin-3-yl)benzamide] | < 100 | > 70 | 
14 | CCn1nc(-c2ccccn2)c2c1NCCSC2c1ccc(C(=O)Nc2cccnc2C)cc1C (single isomer, unassigned) [M.62, 4-(1-ethyl-3-(pyridin-2-yl)-4,6,7,8-tetrahydro-1H-pyrazolo[3,4-e][1,4]thiazepin-4-yl)-3-methyl-N-(2-methylpyridin-3-yl)benzamide] | < 100 | > 70 | 
15 | CCn1nc(-c2ccccn2)c2c1NCCSC2c1ccc(C(=O)Nc2cccnc2C)cc1C(F)(F)F (single isomer, unassigned) [M.68, 4-(1-ethyl-3-(pyridin-2-yl)-4,6,7,8-tetrahydro-1H-pyrazolo[3,4-e][1,4]thiazepin-4-yl)-N-(2-methylpyridin-3-yl)-3-(trifluoromethyl)benzamide] | 1000 to 10000 | > 70 | 
16 | Cc1cc(C#CCO)ccc1[C@@H]1SC[C@@H](C)Nc2c1c(-c1ccccn1)nn2C (single isomer, unassigned) [M.70, 3-(4-(1,7-dimethyl-3-(pyridin-2-yl)-4,6,7,8-tetrahydro-1H-pyrazolo[3,4-e][1,4]thiazepin-4-yl)-3-methylphenyl)prop-2-yn-1-ol] | < 100 | < 50 | 
17 | Cc1cc(C#CCO)ccc1[C@@H]1SC[C@H](C)Nc2c1c(-c1ccccn1)nn2C (single isomer, unassigned) [M.71, 3-(4-(1,7-dimethyl-3-(pyridin-2-yl)-4,6,7,8-tetrahydro-1H-pyrazolo[3,4-e][1,4]thiazepin-4-yl)-3-methylphenyl)prop-2-yn-1-ol] | < 100 | < 50 | 
18 | CCn1nc(-c2ccccn2)c2c1NC(=O)CCC2c1ccc(Br)cc1C (stereo not drawn) [AA.1, 4-(4-Bromo-2-methylphenyl)-1-ethyl-3-(pyridin-2-yl)-4,5,6,8-tetrahydropyrazolo[3,4-b]azepin-7(1H)-one] | < 100 | < 50 | 
19 | CCn1nc(-c2ccccn2)c2c1NCCCC2c1ccc(Br)cc1C (stereo not drawn) [BB.1, 4-(4-bromo-2-methylphenyl)-1-ethyl-3-(pyridin-2-yl)-1,4,5,6,7,8-hexahydropyrazolo[3,4-b]azepine] | < 100 | > 70 | 
20 | Cn1nc(-c2ccccn2)c2c1NC(=O)CSC2c1ccc(Br)cc1Cl (stereo not drawn) [C.2, 4-(4-bromo-2-chloro-phenyl)-1-methyl-3-(2-pyridyl)-4,8-dihydropyrazolo[3,4-e][1,4]thiazepin-7-one] | 100 to 1000 |  | < 50
21 | Cc1cc(Cl)ccc1C1SCCNc2c1c(-c1ccccn1)nn2C (stereo not drawn) [D.1, 4-(4-chloro-2-methyl-phenyl)-1-methyl-3-(2-pyridyl)-4,6,7,8-tetrahydro-pyrazolo[3,4-e][1,4]thiazepine] | < 100 | > 60 | 
22 | Cn1nc(-c2ccccn2)c2c1NCCSC2c1c(Cl)cccc1Cl (stereo not drawn) [D.2] | 1000 to 10000 | < 50 | 
23 | Cn1nc(-c2ccccn2)c2c1NCCSC2c1ccc(Cl)cc1C(F)(F)F (stereo not drawn) [D.3] | < 100 | < 50 | 
24 | Cc1nn(C)c2c1C(c1ccc(Cl)cc1Cl)SC(C)(C)CN2 (stereo not drawn) [D.4, 4-(2,4-dichlorophenyl)-1,3,6,6-tetramethyl-7,8-dihydro-4H-pyrazolo[3,4-e][1,4]thiazepine] | < 100 | < 50 | 
25 | COc1cc(Cl)ccc1C1SCCNc2c1c(-c1ccccn1)nn2C (stereo not drawn) [D.5] | < 100 | < 50 | 
26 | CN(C)c1ccc(C2SCCNc3c2c(-c2ccccn2)nn3C)c(Cl)c1 (stereo not drawn) [D.6] | 100 to 1000 | < 50 | 
27 | Cn1nc(-c2ccccn2)c2c1NCCSC2c1ccncc1Cl (stereo not drawn) [D.7] | < 100 | < 50 | 
